These results are taken from PubChem BioAssay (NCI).

Holding throughout (assay): inhibition of tumour cell growth, NCI panel, 48 h
Assay [1] relates to COLO 205 colon.
In assay [2] the test system is HCT-15 colon.
For assay [3], the system named is HOP-92 NSCLC.
Assay [4] deals with HT29 colon.
Assay [5] deals with IGROV1 ovarian.
Assay [6] concerns MOLT-4 leukemia.
Assay [7] deals with NCI-H23 lung.
Assay [8] deals with RPMI-8226 leukemia.
Assay [9] concerns SK-MEL-2 melanoma.
The test system of assay [10] is SK-MEL-5 melanoma.
The test system of assay [11] is SK-OV-3 ovarian.
The test system of assay [12] is SN12C renal.
Assay [13] relates to SR leukemia.
In assay [14] the test system is UACC-257 melanoma.
Assay [15] concerns UACC-62 melanoma.
In assay [16] the test system is OVCAR-4 ovarian.
In assay [17] the test system is A498 renal.

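1) Cells in 96-well plates. 2) Compound, 48 h, 5 concentrations. 3) Linear interpolation between surrounding doses. 4) Unreached endpoint = highest concentration. GI50 = concentration required for 50% inhibition of growth. TGI denotes the concentration required for complete inhibition of growth.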 Where only a bound is given, the exact number is not on record here.

Regarding `CO[C@H](c1ccccc1)[C@H](C)N(C)c1ccc2ccccc2c1C1=NC(C)(C)CO1`, the TGI in assay [1] is 40.9 µM; in [2] it was 29.7 µM; in assay [3], 30.6 µM; in assay [4], 25.1 µM; in assay [5], above 100 µM; in [6], 39.3 µM. The TGI in [7] is 31 µM; in assay [8], 53.2 µM; in assay [9] it was 29.7 µM; in assay [10], above 100 µM; in [11], 33.3 µM; in [12], 33.2 µM. The TGI in [13] is 50.1 µM; in [14] it was 30.6 µM; in [15], above 100 µM.

For `COC1=CC(=O)c2ccccc2C1(C)C1=NC(C)(C)CO1` (stereo not given), the TGI in assay [1], in [2], in [3], in [4], in assay [5] and in [6] was above 100 µM each time. Moreover, the TGI in [7], in [16], in [8], in assay [9], in assay [10] and in [11] was above 100 µM in each case. Also, the TGI in assay [12], in assay [13], in assay [14] and in [15] was above 100 µM in each case.

Consider `C[N+](C)(Cc1ccc(NC(=O)CCCC(=O)ON2C(=O)CCC2=O)cc1)c1ccccc1`, for which the TGI in assay [17] is above 100 µM; in [2], above 100 µM; in assay [3], below 0.01 µM; in assay [4], above 100 µM; in [6], 1.8 µM; in [7] it was above 100 µM. Besides, the TGI is 2.29 µM in assay [16]; above 100 µM in [9]; above 100 µM in assay [11]; above 100 µM in assay [12]; below 0.01 µM in assay [13]; below 0.01 µM in assay [14]. For the same compound, the TGI in [15] was below 0.01 µM. The GI50 in [2] was above 100 µM.

With `O=S(Cc1cc2c(cc1Br)OCO2)c1ccccc1` (stereo not given), the TGI in [17], in [1], in assay [2], in assay [3], in assay [4] and in assay [5] was above 100 µM in each case. The TGI in [6] is above 100 µM; in [7], above 100 µM; in [16], above 100 µM; in assay [8], 59.4 µM; in [9] it was above 100 µM; in assay [10], above 100 µM. Besides, the TGI in assay [11], in assay [12], in [14] and in assay [15] was above 100 µM in each case.

On to `CCCCCC(=O)Cc1cc(OC)cc2c1C(=O)Oc1cc(O)c(C(=O)O)c(CC(=O)CCCCC)c1O2`, for which the TGI was above 100 µM in assay [17]; above 100 µM in assay [1]; above 100 µM in assay [4]; above 100 µM in assay [5]; above 100 µM in assay [6]; 37.1 µM in [7]. Further, the TGI is above 100 µM in assay [8]; above 100 µM in assay [10]; above 100 µM in assay [11]; above 100 µM in assay [13]; above 100 µM in [14]; 49.6 µM in assay [15].

With `COC(=O)c1cc(C)n(NC(=O)OC(C)(C)C)c1C`, the TGI in assay [17], in assay [1], in assay [2], in [4], in assay [5] and in assay [6] was above 100 µM throughout. Moreover, the TGI in assay [7], in assay [8], in assay [9], in assay [10], in assay [11] and in assay [12] was above 100 µM throughout. Besides, the TGI in assay [14] and in [15] was above 100 µM in each case.

Take `C1=c2ccccc2=C2C(=C(c3ccccc3)C(c3ccccc3)=NN2c2ccccc2)S1`: the TGI in [17], in assay [1], in assay [2], in assay [3], in assay [4] and in assay [5] was above 100 µM throughout. The TGI in [6], in assay [7], in assay [16], in [8], in [9] and in assay [10] was above 100 µM throughout. The TGI in assay [11], in assay [12], in [14] and in assay [15] was above 100 µM throughout.

As to `COc1cc(C2C(Cl)C(=O)N2NC(=O)Cc2ccccc2)ccc1O` (stereo not given), the TGI in assay [1], in assay [2], in [4], in [5], in [6] and in assay [7] was above 100 µM throughout. Further, the TGI in [16], in assay [8], in assay [9], in [10], in [11] and in assay [12] was above 100 µM in each case. Also, the TGI in assay [13] was 83.4 µM; in assay [14], above 100 µM; in assay [15] it was above 100 µM.

For `CCCCCn1cnc2c1S(=O)(=O)N(C)C(NC(=O)c1ccccc1)=N2`, the TGI in assay [17], in assay [1], in assay [2], in assay [3], in assay [4] and in assay [5] was above 100 µM in each case. In addition, the TGI in assay [6], in assay [7], in [16], in [8], in assay [9] and in [10] was above 100 µM throughout. Also, the TGI in assay [11], in [12], in assay [13], in [14] and in assay [15] was above 100 µM each time.
